The term IC50 denotes the concentration needed to halve the response being measured.

A value given as a limit tells only on which side of the number the result lay.

Here are results for twelve compounds from patent US12590091B2, “1H-pyrrolo[3,2-C]pyridine and 1H-pyrrolo[2,3-C]pyridine derivatives as TLR9 inhibitors for the treatment of fibrosis” (BRISTOL-MYERS SQUIBB COMPANY, priority 2020, dated 2026).

One assay deals with T1, human TLR9 (Homo sapiens, UniProt Q9NR96).
T1 construct: host or cells: HEK-Blue cells
T1 sequence (Q9NR96 26-1032): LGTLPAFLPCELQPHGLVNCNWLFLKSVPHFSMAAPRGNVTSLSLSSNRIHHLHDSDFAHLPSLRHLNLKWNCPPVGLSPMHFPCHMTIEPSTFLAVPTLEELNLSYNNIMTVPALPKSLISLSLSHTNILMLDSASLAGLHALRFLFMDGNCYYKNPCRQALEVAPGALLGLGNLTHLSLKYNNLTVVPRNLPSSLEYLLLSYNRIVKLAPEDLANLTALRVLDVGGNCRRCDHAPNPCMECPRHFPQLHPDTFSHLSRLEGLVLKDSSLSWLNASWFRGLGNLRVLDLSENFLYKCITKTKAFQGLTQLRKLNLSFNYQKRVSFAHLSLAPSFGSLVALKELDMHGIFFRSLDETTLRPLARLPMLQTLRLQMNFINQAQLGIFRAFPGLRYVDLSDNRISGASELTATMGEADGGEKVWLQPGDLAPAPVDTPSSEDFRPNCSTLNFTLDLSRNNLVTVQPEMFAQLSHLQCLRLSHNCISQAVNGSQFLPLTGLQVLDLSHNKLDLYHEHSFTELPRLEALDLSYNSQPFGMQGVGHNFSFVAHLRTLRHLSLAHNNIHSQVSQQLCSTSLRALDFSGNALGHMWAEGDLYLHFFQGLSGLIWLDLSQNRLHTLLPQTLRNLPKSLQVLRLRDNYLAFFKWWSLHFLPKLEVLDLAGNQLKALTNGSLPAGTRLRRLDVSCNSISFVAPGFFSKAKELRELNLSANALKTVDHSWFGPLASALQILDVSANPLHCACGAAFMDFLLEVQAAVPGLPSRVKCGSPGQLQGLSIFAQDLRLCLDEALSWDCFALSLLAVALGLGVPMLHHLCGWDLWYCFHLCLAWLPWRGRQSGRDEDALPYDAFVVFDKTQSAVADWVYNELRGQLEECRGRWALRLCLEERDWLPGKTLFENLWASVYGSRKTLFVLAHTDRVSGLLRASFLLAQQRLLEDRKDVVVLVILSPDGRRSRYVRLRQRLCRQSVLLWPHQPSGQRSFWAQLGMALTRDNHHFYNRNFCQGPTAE
Nature of the assay: TLR9 inhibition reporter assay (HEK-Blue cells, SEAP reporter). It counts as cell-based. To be noted: HEK-Blue cells overexpressing human TLR9, stimulated with ODN2006 5 nM, 22 hour incubation. A digest of the protocol: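 HEK-Blue cells overexpressing human TLR9 (25,000 cells/well), NF-κB/AP-1-driven SEAP reporter. Compounds at 0.05 nM–50 μM final, 22 h at 37 °C, 5% CO2 with agonist. SEAP detected with HEK-Blue Detection medium; % inhibition versus agonist plus DMSO and known-inhibitor wells.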
(A reporter such as luciferase makes a cellular process visible.)

A further assay concerns the target T2, human TLR8 (Homo sapiens, UniProt Q9NR97).
T2 construct: host or cells: HEK-Blue cells
T2 sequence (Q9NR97 27-1041): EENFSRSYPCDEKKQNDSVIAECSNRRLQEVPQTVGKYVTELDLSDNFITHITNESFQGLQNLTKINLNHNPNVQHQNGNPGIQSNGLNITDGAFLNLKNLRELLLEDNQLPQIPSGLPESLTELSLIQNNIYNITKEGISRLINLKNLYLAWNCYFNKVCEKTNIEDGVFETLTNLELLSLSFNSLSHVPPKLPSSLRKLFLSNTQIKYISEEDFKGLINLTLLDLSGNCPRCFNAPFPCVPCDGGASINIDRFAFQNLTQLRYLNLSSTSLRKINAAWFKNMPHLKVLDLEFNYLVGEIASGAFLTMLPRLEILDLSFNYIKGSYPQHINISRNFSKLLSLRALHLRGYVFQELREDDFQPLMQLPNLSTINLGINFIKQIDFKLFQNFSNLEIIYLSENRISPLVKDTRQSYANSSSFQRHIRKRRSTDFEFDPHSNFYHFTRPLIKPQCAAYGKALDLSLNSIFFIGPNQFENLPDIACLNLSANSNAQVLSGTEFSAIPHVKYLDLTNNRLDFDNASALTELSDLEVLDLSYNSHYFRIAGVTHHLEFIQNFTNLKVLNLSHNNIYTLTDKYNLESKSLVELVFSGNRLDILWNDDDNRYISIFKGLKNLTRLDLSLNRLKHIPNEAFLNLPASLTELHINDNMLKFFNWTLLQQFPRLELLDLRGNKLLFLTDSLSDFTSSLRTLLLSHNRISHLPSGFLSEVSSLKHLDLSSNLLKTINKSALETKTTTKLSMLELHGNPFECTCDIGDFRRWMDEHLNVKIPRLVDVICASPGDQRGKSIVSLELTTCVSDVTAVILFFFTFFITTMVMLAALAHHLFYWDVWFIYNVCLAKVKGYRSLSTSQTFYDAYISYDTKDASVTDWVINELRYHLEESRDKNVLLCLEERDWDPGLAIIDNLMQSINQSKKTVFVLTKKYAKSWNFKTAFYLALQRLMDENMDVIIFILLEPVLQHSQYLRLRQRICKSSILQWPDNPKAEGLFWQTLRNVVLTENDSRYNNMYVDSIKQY
Nature of the assay: TLR8 inhibition reporter assay (HEK-Blue cells, SEAP reporter). In kind it is cell-based. To be noted: HEK-Blue cells overexpressing human TLR8, stimulated with R848 15.9 μM, 22 hour incubation. A digest of the protocol: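 Human TLR7/8/9 HEK-Blue reporter lines; dose range 0.05 nM–50 μM; 30 min RT preincubation; stimulus gardiquimod 7.5 μM / R848 15.9 μM / ODN2006 5 nM respectively; 22 h, 37 °C; SEAP detected colorimetrically.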

On to `CCOC(=O)N1CCC(N2CCC(c3cc4c(cn3)cc(-c3ccc(OC)c(OC)c3)n4C)CC2)CC1` [Example 7, Ethyl 4-(2-(3,4-dimethoxyphenyl)-1-methyl-1H-pyrrolo[3,2-c]pyridin-6-yl)-[1,4′-bipiperidine]-1′-carboxylate], for which the values for the IC50 against human TLR9 and at human TLR8 were 111 nM and 5.2 µM, respectively.
Regarding `COc1ccc(-c2cc3cnc(C4CCN(Cc5ccc(C)nc5)CC4)cc3n2C)cc1OC` [Example 8, 2-(3,4-Dimethoxyphenyl)-1-methyl-6-(1-((6-methylpyridin-3-yl)methyl)piperidin-4-yl)-1H-pyrrolo[3,2-c]pyridine], the results for the IC50 against human TLR9 and at human TLR8 were 58 nM and 25.9 µM, respectively.
Regarding `Cc1nc(-c2cc(F)c(N3CCN(C4CCOCC4)CC3)c(F)c2)cc2c1cc(-c1ccc(S(C)(=O)=O)cc1)n2C` [Example 89, 6-(3,5-difluoro-4-(4-(tetrahydro-2H-pyran-4-yl)piperazin-1-yl)phenyl)-1,4-dimethyl-2-(4-(methylsulfonyl)phenyl)-1H-pyrrolo[3,2-c]pyridine], the IC50 at human TLR9 was 226 nM; at human TLR8, above 50 µM.
As for `Cc1nc(-c2ccc(C3(O)CCN(CC(C)C)CC3)c(F)c2)cc2c1cc(-c1ccc(S(C)(=O)=O)cc1)n2C` [Example 90, 4-(4-(1,4-dimethyl-2-(4-(methylsulfonyl)phenyl)-1H-pyrrolo[3,2-c]pyridin-6-yl)-2-fluorophenyl)-1-isobutylpiperidin-4-ol], the values for the IC50 on human TLR9 and at human TLR8 were 141 nM and 22.1 µM, respectively.
As for `Cc1nc(-c2ccc(C3(O)CC4CCC(C3)N4CC(C)C)c(F)c2)cc2c1cc(-c1ccc(S(C)(=O)=O)cc1)n2C` [Example 91, (1R,3r,5S)-3-(4-(1,4-dimethyl-2-(4-(methylsulfonyl)phenyl)-1H-pyrrolo[3,2-c]pyridin-6-yl)-2-fluorophenyl)-8-isobutyl-8-azabicyclo[3.2.1]octan-3-ol], the 50% inhibitory concentration (IC50) at human TLR9 came to 735 nM; against human TLR8 it was 1.3 µM.
On to `COCCN1CCC(O)(c2ccc(-c3cc4c(cc(-c5ccc(S(C)(=O)=O)cc5)n4C)c(C)n3)cc2F)CC1` [Example 92, 4-(4-(1,4-dimethyl-2-(4-(methylsulfonyl)phenyl)-1H-pyrrolo[3,2-c]pyridin-6-yl)-2-fluorophenyl)-1-(2-methoxyethyl)piperidin-4-ol], for which the IC50 was 109 nM at human TLR9 and above 50 µM against human TLR8.
On to `Cc1nc(-c2ccc(C3(O)CCN(C4CC4)CC3)c(F)c2)cc2c1cc(-c1ccc(S(C)(=O)=O)cc1)n2C` [Example 93, 1-cyclopropyl-4-(4-(1,4-dimethyl-2-(4-(methylsulfonyl)phenyl)-1H-pyrrolo[3,2-c]pyridin-6-yl)-2-fluorophenyl)piperidin-4-ol], for which the values for the IC50 against human TLR9 and at human TLR8 were 1430 nM and above 50 µM, respectively.
As to `Cc1nc(-c2cc(F)c(C3(O)CCN(CC(C)C)CC3)cc2F)cc2c1cc(-c1ccc(S(C)(=O)=O)cc1)n2C` [Example 94, 4-(4-(1,4-dimethyl-2-(4-(methylsulfonyl)phenyl)-1H-pyrrolo[3,2-c]pyridin-6-yl)-2,5-difluorophenyl)-1-isobutylpiperidin-4-ol], the values for the IC50 against human TLR9 and on human TLR8 were 143 nM and 2.5 µM, respectively.
As to `COCCN1CCC(O)(c2cc(F)c(-c3cc4c(cc(-c5ccc(S(C)(=O)=O)cc5)n4C)c(C)n3)cc2F)CC1` [Example 95, 4-(4-(1,4-dimethyl-2-(4-(methylsulfonyl)phenyl)-1H-pyrrolo[3,2-c]pyridin-6-yl)-2,5-difluorophenyl)-1-(2-methoxyethyl)piperidin-4-ol], the figures for the concentration for half-maximal inhibition (IC50) on human TLR9 and on human TLR8 were 537 nM and 2.7 µM, respectively.
Take `Cc1nc(-c2cc(F)c(C3(O)CCN(C4CC4)CC3)cc2F)cc2c1cc(-c1ccc(S(C)(=O)=O)cc1)n2C` [Example 96, 1-cyclopropyl-4-(4-(1,4-dimethyl-2-(4-(methylsulfonyl)phenyl)-1H-pyrrolo[3,2-c]pyridin-6-yl)-2,5-difluorophenyl)piperidin-4-ol]: the figures for the IC50 at human TLR9 and on human TLR8 were 162 nM and 4.1 µM, respectively.
As to `Cc1nc(-c2cc(F)c(N3CCN4CCCC4C3)cc2F)cc2c1cc(-c1ccc(S(C)(=O)=O)cc1)n2C` (stereo not drawn) [Example 97, 6-(2,5-difluoro-4-(hexahydropyrrolo[1,2-a]pyrazin-2(1H)-yl)phenyl)-1,4-dimethyl-2-(4-(methylsulfonyl)phenyl)-1H-pyrrolo[3,2-c]pyridine], the IC50 turned out to be 202 nM against human TLR9 and 5.3 µM on human TLR8.
Take `Cc1nc(-c2cc(F)c(N3CCN4CCCC4C3)c(F)c2)cc2c1cc(-c1ccc(S(C)(=O)=O)cc1)n2C` (stereo not drawn) [Example 98, 6-(3,5-difluoro-4-(hexahydropyrrolo[1,2-a]pyrazin-2(1H)-yl)phenyl)-1,4-dimethyl-2-(4-(methylsulfonyl)phenyl)-1H-pyrrolo[3,2-c]pyridine]: the IC50 was 212 nM against human TLR9 and above 50 µM at human TLR8.
